Assay results: US20200222474A1, “COMPOSITIONS AND METHODS FOR INCREASING PHYTOCHEMICAL BIOAVAILABLITY AND BIOACTIVITY” (North Carolina State University, priority 2017, published 2020)

Tested on: L. acidophilus NCFM
Assay: RNA-seq transcriptional analysis of L. acidophilus NCFM growing on plant glycosides
Assay type: cell-based, Lactobacillus acidophilus
[1] = gene LBA0282 (Hypothetical protein)
[2] = gene LBA0327 (Replication protein)
[3] = gene LBA0328 (Hypothetical protein)
[4] = gene LBA0330 (Hypothetical protein)
[5] = gene LBA0457 (Hypothetical protein)
[6] = gene LBA0485 (Hypothetical protein)
[7] = gene LBA0486 (Hypothetical protein)
[8] = gene LBA0487 (Hypothetical protein.)
[9] = gene LBA0492 (Hypothetical protein)
[10] = gene LBA0541 (Cadmium-transporting ATPase)
[11] = gene LBA0542 (Putative heavy-metal-transporting alpase)
[12] = gene LBA0543 (Hypothetical protein)
[13] = gene LBA0544 (Transcriptional regulator)
[14] = gene LBA0555 (Myosin-crossreactive antigen)
[15] = gene LBA0564 (HAD family hydrolase)
[16] = gene LBA0574 (ABC multi drug exporter)
[17] = gene LBA0575 (ABC multi drug exporter)
[18] = gene LBA0604 (Immunity protein)
[19] = gene LBA0605 (Putative hydrolase)
[20] = gene LBA0608 (Hypothetical protein)
[21] = gene LBA0631 (Hypothetical protein)
[22] = gene LBA0649 (Myosin-crossreactive antigen)
[23] = gene LBA0728 (Hypothetical protein LBA0728)
[24] = gene LBA1025 (Aldo/keto reductase family oxidoreductase)
[25] = gene LBA1026 (Aldo/keto reduetase family oxidoreductase)
[26] = gene LBA1206 (Hypothetical protein)
[27] = gene LBA1401 (Peroxidase (Npx))
[28] = gene LBA1435 (Hypothetical protein)
[29] = gene LBA1455 (Putative surface layer protein)
[30] = gene LBA1469 (UDP-glucose 4-epimerase)
[31] = gene LBA1656 (Hypothetical protein)
[32] = gene LBA1675 (Hypothetical protein)
[33] = gene LBA1676 (ATP-dependent helicase)
[34] = gene LBA1683 (Putative magnesium-transporting atpase)
[35] = gene LBA1704 (N-Acetylmuramic acid-6-phosphate etherase)
[36] = gene LBA1740 (Hypothetical protein)
[37] = gene LBA1752 (Hypothetical protein)
[38] = gene LBA1769 (Hypothetical protein)
[39] = gene LBA1793 (Hypothetical protein)
[40] = gene LBA1869 (Beta-phosphoglueomutase)
[41] = gene LBA1895 (Hypothetical protein)
[42] = nTPM on plant glycoside relative to glucose, mid-exponential phase

SMILES: OCc1ccccc1O[C@@H]1O[C@H](CO)[C@@H](O)[C@H](O)[C@H]1O [Salicin]
- Log2 differential normalized TPM ratio compared to lactose [1]: 0
- Transcripts per million (rpm) [1]: 34.3 rpm
- Log2 differential normalized TPM ratio compared to glucose [2]: 0
- Log2 differential normalized TPM ratio compared to lactose [2]: −0.3
- Transcripts per million (rpm) [2]: 8.1 rpm
- Log2 differential normalized TPM ratio compared to glucose [3]: −0.1
- Log2 differential normalized TPM ratio compared to lactose [3]: 0
- Transcripts per million (rpm) [3]: 13.3 rpm
- Log2 differential normalized TPM ratio compared to glucose [4]: 0.4
- Log2 differential normalized TPM ratio compared to lactose [4]: 0
- Transcripts per million (rpm) [4]: 27.3 rpm
- Log2 differential normalized TPM ratio compared to glucose [5]: 1.8
- Log2 differential normalized TPM ratio compared to lactose [5]: 0.8
- Transcripts per million (rpm) [5]: 1746 rpm
- Log2 differential normalized TPM ratio compared to glucose [6]: 1.9
- Log2 differential normalized TPM ratio compared to lactose [6]: −0.5
- Transcripts per million (rpm) [6]: 770.3 rpm
- Log2 differential normalized TPM ratio compared to glucose [7]: 2.4
- Log2 differential normalized TPM ratio compared to lactose [7]: −0.4
- Transcripts per million (rpm) [7]: 1205 rpm
- Log2 differential normalized TPM ratio compared to glucose [8]: 1.5
- Log2 differential normalized TPM ratio compared to lactose [8]: 0.2
- Transcripts per million (rpm) [8]: 96.1 rpm
- Log2 differential normalized TPM ratio compared to glucose [9]: 2
- Log2 differential normalized TPM ratio compared to lactose [9]: −0.5
- Transcripts per million (rpm) [9]: 32.8 rpm
- Log2 differential normalized TPM ratio compared to glucose [10]: 2
- Log2 differential normalized TPM ratio compared to lactose [10]: −0.3
- Transcripts per million (rpm) [10]: 143.6 rpm
- Log2 differential normalized TPM ratio compared to glucose [11]: 1.8
- Log2 differential normalized TPM ratio compared to lactose [11]: −0.4
- Transcripts per million (rpm) [11]: 311.6 rpm
- Log2 differential normalized TPM ratio compared to glucose [12]: 2
- Log2 differential normalized TPM ratio compared to lactose [12]: −0.4
- Transcripts per million (rpm) [12]: 266.3 rpm
- Log2 differential normalized TPM ratio compared to glucose [13]: 1.7
- Log2 differential normalized TPM ratio compared to lactose [13]: −0.3
- Transcripts per million (rpm) [13]: 342.8 rpm
- Log2 differential normalized TPM ratio compared to glucose [14]: 1.4
- Log2 differential normalized TPM ratio compared to lactose [14]: −0.5
- Transcripts per million (rpm) [14]: 118.8 rpm
- Log2 differential normalized TPM ratio compared to glucose [15]: 0.4
- Log2 differential normalized TPM ratio compared to lactose [15]: −0.2
- Transcripts per million (rpm) [15]: 1.4 rpm
- Log2 differential normalized TPM ratio compared to glucose [16]: −0.7
- Log2 differential normalized TPM ratio compared to lactose [16]: −1
- Transcripts per million (rpm) [16]: 54.6 rpm
- Log2 differential normalized TPM ratio compared to glucose [17]: −0.5
- Log2 differential normalized TPM ratio compared to lactose [17]: −0.8
- Transcripts per million (rpm) [17]: 55.6 rpm
- Log2 differential normalized TPM ratio compared to glucose [18]: −0.1
- Log2 differential normalized TPM ratio compared to lactose [18]: −0.6
- Transcripts per million (rpm) [18]: 14.3 rpm
- Log2 differential normalized TPM ratio compared to glucose [19]: 1.2
- Log2 differential normalized TPM ratio compared to lactose [19]: 0.2
- Transcripts per million (rpm) [19]: 6.3 rpm
- Log2 differential normalized TPM ratio compared to glucose [20]: 1.4
- Log2 differential normalized TPM ratio compared to lactose [20]: 0.3
- Transcripts per million (rpm) [20]: 95.4 rpm
- Log2 differential normalized TPM ratio compared to glucose [21]: 2.9
- Log2 differential normalized TPM ratio compared to lactose [21]: −0.2
- Transcripts per million (rpm) [21]: 9342.6 rpm
- Log2 differential normalized TPM ratio compared to glucose [22]: 1.6
- Log2 differential normalized TPM ratio compared to lactose [22]: 0.8
- Transcripts per million (rpm) [22]: 116.3 rpm
- Log2 differential normalized TPM ratio compared to glucose [23]: 4.1
- Log2 differential normalized TPM ratio compared to lactose [23]: 2.3
- Transcripts per million (rpm) [23]: 43.8 rpm
- Log2 differential normalized TPM ratio compared to lactose (gene LBA0802 (Hypothetical protein)): −0.2
- Log2 differential normalized TPM ratio compared to glucose (gene LBA0861 (Polyferredoxin)): 0.1
- Log2 differential normalized TPM ratio compared to lactose (gene LBA0861 (Polyferredoxin)): −0.5
- Transcripts per million (rpm) (gene LBA0861 (Polyferredoxin)): 196.3 rpm
- Log2 differential normalized TPM ratio compared to glucose (gene LBA1023 (Oxidoreductase)): −0.4
- Log2 differential normalized TPM ratio compared to lactose (gene LBA1023 (Oxidoreductase)): −0.7
- Transcripts per million (rpm) (gene LBA1023 (Oxidoreductase)): 132.8 rpm
- Log2 differential normalized TPM ratio compared to glucose [24]: −0.4
- Log2 differential normalized TPM ratio compared to lactose [24]: −0.5
- Transcripts per million (rpm) [24]: 23.7 rpm
- Log2 differential normalized TPM ratio compared to glucose [25]: −0.3
- Log2 differential normalized TPM ratio compared to lactose [25]: −0.8
- Transcripts per million (rpm) [25]: 26.1 rpm
- Log2 differential normalized TPM ratio compared to glucose (gene LBA1027 (Oxidoreductase)): 2.2
- Log2 differential normalized TPM ratio compared to lactose (gene LBA1027 (Oxidoreductase)): 0.6
- Transcripts per million (rpm) (gene LBA1027 (Oxidoreductase)): 2726.8 rpm
- Log2 differential normalized TPM ratio compared to glucose [26]: 1.5
- Log2 differential normalized TPM ratio compared to lactose [26]: 0.3
- Transcripts per million (rpm) [26]: 391.2 rpm
- Log2 differential normalized TPM ratio compared to glucose [27]: 2.7
- Log2 differential normalized TPM ratio compared to lactose [27]: 0.6
- Transcripts per million (rpm) [27]: 466.6 rpm
- Log2 differential normalized TPM ratio compared to glucose [28]: 3.6
- Log2 differential normalized TPM ratio compared to lactose [28]: −0.2
- Transcripts per million (rpm) [28]: 52.5 rpm
- Log2 differential normalized TPM ratio compared to glucose [29]: 0.1
- Log2 differential normalized TPM ratio compared to lactose [29]: −1.6
- Transcripts per million (rpm) [29]: 18.3 rpm
- Log2 differential normalized TPM ratio compared to glucose [30]: 1.4
- Log2 differential normalized TPM ratio compared to lactose [30]: −3.6
- Transcripts per million (rpm) [30]: 235.5 rpm
- Log2 differential normalized TPM ratio compared to glucose [31]: 0.9
- Log2 differential normalized TPM ratio compared to lactose [31]: 0.3
- Transcripts per million (rpm) [31]: 38.2 rpm
- Log2 differential normalized TPM ratio compared to glucose [32]: 2
- Log2 differential normalized TPM ratio compared to lactose [32]: 0.5
- Transcripts per million (rpm) [32]: 1669.1 rpm
- Log2 differential normalized TPM ratio compared to glucose [33]: 1.7
- Log2 differential normalized TPM ratio compared to lactose [33]: 0.5
- Transcripts per million (rpm) [33]: 1070.6 rpm
- Log2 differential normalized TPM ratio compared to glucose [34]: 0.3
- Log2 differential normalized TPM ratio compared to lactose [34]: 0.5
- Transcripts per million (rpm) [34]: 20.2 rpm
- Log2 differential normalized TPM ratio compared to glucose [35]: 0.7
- Log2 differential normalized TPM ratio compared to lactose [35]: 0.1
- Transcripts per million (rpm) [35]: 11.6 rpm
- Log2 differential normalized TPM ratio compared to glucose [36]: 0.3
- Log2 differential normalized TPM ratio compared to lactose [36]: −0.5
- Transcripts per million (rpm) [36]: 23.1 rpm
- Log2 differential normalized TPM ratio compared to glucose [37]: 0.6
- Log2 differential normalized TPM ratio compared to lactose [37]: −0.3
- Transcripts per million (rpm) [37]: 13 rpm
- Log2 differential normalized TPM ratio compared to glucose [38]: 1.8
- Log2 differential normalized TPM ratio compared to lactose [38]: −0.1
- Transcripts per million (rpm) [38]: 5527.5 rpm
- Log2 differential normalized TPM ratio compared to glucose [39]: 1.2
- Log2 differential normalized TPM ratio compared to lactose [39]: −1.7
- Transcripts per million (rpm) [39]: 37.8 rpm
- Log2 differential normalized TPM ratio compared to glucose (gene LBA1796 (ABC exporter)): 1
- Log2 differential normalized TPM ratio compared to lactose (gene LBA1796 (ABC exporter)): −1.6
- Transcripts per million (rpm) (gene LBA1796 (ABC exporter)): 18.3 rpm
- Log2 differential normalized TPM ratio compared to glucose [40]: 2.4
- Log2 differential normalized TPM ratio compared to lactose [40]: −0.1
- Transcripts per million (rpm) [40]: 43.1 rpm
- Log2 differential normalized TPM ratio compared to glucose [41]: 0.7
- Log2 differential normalized TPM ratio compared to lactose [41]: 0.5
- Transcripts per million (rpm) [41]: 46.2 rpm
- Log2 Ratio vs Glc, LBA0225 Phospho-β-glucosidase (GH1) [42]: −0.1
- Log2 Ratio vs Glc, LBA0227 PTS EIIC [42]: 0.9
- Log2 Ratio vs Glc, LBA0228 Transcriptional regulator [42]: 0.1
- Log2 Ratio vs Glc, LBA0466 Phosphoenolpyruvate carboxykinase (ATP) [42]: 1.3
- Log2 Ratio vs Glc, LBA0491 PTS EIIC [42]: 1.5
- Log2 Ratio vs Glc, LBA0492 Hypothetical protein [42]: 2
- Log2 Ratio vs Glc, LBA0555 Myosin-cross-reactive antigen/Fatty acid hydratase [42]: 1.4
- Log2 Ratio vs Glc, LBA0606 PTS EIIBC [42]: 2.5
- Log2 Ratio vs Glc, LBA0631 Hypothetical protein [42]: 2.9
- Log2 Ratio vs Glc, LBA0724 Transcriptional regulator (antiterminator) [42]: 5.3
- Log2 Ratio vs Glc, LBA0725 PTS EIICBA [42]: 8.9
- Log2 Ratio vs Glc, LBA0726 Phospho-β-glucosidase (GH1) [42]: 6.2
- Log2 Ratio vs Glc, LBA0728 Hypothetical protein [42]: 4.1
- Log2 Ratio vs Glc, LBA0876 PTS EIIC [42]: 2.4
- Log2 Ratio vs Glc, LBA0877 PTS EIIA [42]: 1.3
- Log2 Ratio vs Glc, LBA1401 Peroxidase (Npx) [42]: 2.7
- Log2 Ratio vs Glc, LBA1411 Fumarate reductase flavoprotein subunit [42]: 1.4
- Log2 Ratio vs Glc, LBA1433 Dihydroxyacetone kinase [42]: 2.7
- Log2 Ratio vs Glc, LBA1434 Dihydroxyacetone kinase [42]: 3.3
- Log2 Ratio vs Glc, LBA1435 Hypothetical protein [42]: 3.6
- Log2 Ratio vs Glc, LBA1436 Glycerol uptake facilitator protein [42]: 3.8
- Log2 Ratio vs Glc, LBA1632 NAD-dependent aldehyde dehydrogenase [42]: 2
- Log2 Ratio vs Glc, LBA1684 PTS EIIA [42]: 2.6
- Log2 Ratio vs Glc, LBA1689 Maltose-6′-phosphate glucosidase (GH4) [42]: 3.7
- Log2 Ratio vs Glc, LBA1701 Melibiose operon regulatory protein [42]: 1
- Log2 Ratio vs Glc, LBA1709 Mucus binding protein precursor [42]: 0.5
- Log2 Ratio vs Glc, LBA1797 Hypothetical protein [42]: 1.3
- Log2 Ratio vs Glc, LBA1812 α-Glucosidase II (GH31) [42]: 2.2
- Log2 Ratio vs Glc, LBA1869 β-Phosphoglucomutase [42]: 2.4
- Log2 Ratio vs Glc, LBA1871 Neopullulanase (GH13) [42]: 0.9
- Log2 Ratio vs Glc, LBA1873 Acetate kinase [42]: 1.2
- Log2 Ratio vs Glc, LBA1974 Pyruvate oxidase [42]: 1.8
